Measured values published in patent US12404285B2, “KRAS G12D proteolysis targeting chimeras” (PAQ Therapeutics Inc., priority 2022, dated 2025).

Molecular target: T1, KRAS (G12D)-HiBit in AsPc-1-KRAS (G12D)-HiBit-KI cell (Homo sapiens, UniProt P01116, G12D)
T1 construct: host or cells: AsPc-1-KRAS (G12D)-HiBit-KI cells (knock-in line)
Assay: G12D HiBit assay
Format: cell-based
Conditions: 24 hours compound treatment, absolute DC50, read-out: Average PHA DC50
How it was run: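 Degradation of endogenous HiBiT-tagged KRAS G12D in AsPc-1 knock-in cells read after 24 h compound exposure (0.015-300 nM, 3-fold steps) by Nano-Glo HiBiT lytic luminescence. Signal normalised to DMSO-only cells; absolute DC50 derived by curve fitting.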

T1 sequence (P01116 1-188 isoform P01116-2 G12D): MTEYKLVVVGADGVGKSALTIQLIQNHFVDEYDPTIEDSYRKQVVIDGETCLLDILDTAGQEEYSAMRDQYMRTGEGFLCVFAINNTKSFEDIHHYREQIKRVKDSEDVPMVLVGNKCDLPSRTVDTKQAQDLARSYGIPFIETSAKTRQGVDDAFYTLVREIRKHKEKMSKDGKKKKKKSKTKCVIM

C#Cc1c(F)ccc2cccc(-c3ncc4c(N5CC6CCC(C5)N6)nc(OC[C@@]56CCCN5[C@H](COC(=O)N5CCN(CCC7CCN(Cc8ccc9c(c8)n(C)c(=O)n9C8CCC(=O)NC8=O)CC7)CC5)CC6)nc4c3F)c12 (stereo partly drawn) [Compound 88, [(3S,8S)-8-[[4-(3,8-Diazabicyclo[3.2.1]octan-3-yl)-7-(8-ethynyl-7-fluoro-1-naphthyl)-8-fluoro-pyrido[4,3-d]pyrimidin-2-yl]oxymethyl]-1,2,3,5,6,7-hexahydropyrrolizin-3-yl]methyl 4-[2-[1-[[1-(2,6-dioxo-3-piperidyl)-3-methyl-2-oxo-benzimidazol-5-yl]methyl]-4-piperidyl]ethyl]piperazine-1-carboxylate]
DC50: < 100 nM

C#Cc1c(F)ccc2cccc(-c3ncc4c(N5CC6CCC(C5)N6)nc(OC[C@@]56CCCN5[C@H](COC(=O)N5CCC(N7CCC(Cc8ccc9c(c8)n(C)c(=O)n9C8CCC(=O)NC8=O)CC7)CC5)CC6)nc4c3F)c12 (stereo partly shown) [Compound 75]
DC50: 100 to 300 nM

C#Cc1c(F)ccc2cccc(-c3ncc4c(N5CC6CCC(C5)N6)nc(OC[C@@]56CCCN5[C@H](COC(=O)N5CCC(COC7CCN(Cc8cccc9c8n(C)c(=O)n9C8CCC(=O)NC8=O)CC7)CC5)CC6)nc4c3F)c12 (stereo partly drawn) [Compound 128, [(3S,8S)-8-[[4-(3,8-diazabicyclo[3.2.1]octan-3-yl)-7-(8-ethynyl-7-fluoro-1-naphthyl)-8-fluoro-pyrido[4,3-d]pyrimidin-2-yl]oxymethyl]-1,2,3,5,6,7-hexahydropyrrolizin-3-yl]methyl4-[[1-[[1-(2,6-dioxo-3-piperidyl)-3-methyl-2-oxo-benzimidazol-4-yl]methyl]-4-piperidyl]oxymethyl]piperidine-1-carboxylate]
DC50: < 100 nM

C#Cc1c(F)ccc2cccc(-c3ncc4c(N5CC6CCC(C5)N6)nc(OC[C@@]56CCCN5[C@H](COC(=O)N5CCC(CCC7CCN(Cc8ccc9c(c8)n(C)c(=O)n9C8CCC(=O)NC8=O)CC7)CC5)CC6)nc4c3F)c12 (stereo partly shown) [Compound 69]
DC50: < 100 nM

C#Cc1c(F)ccc2cccc(-c3ncc4c(N5CC6CCC(C5)N6)nc(OC[C@@]56CCCN5[C@H](COC(=O)N5CCC(OCCCc7cccc8c7n(C)c(=O)n8C7CCC(=O)N(C)C7=O)CC5)CC6)nc4c3F)c12 (stereo partly drawn) [Compound 144, [(3S,8S)-8-[[4-(3,8-Diazabicyclo[3.2.1]octan-3-yl)-7-(8-ethynyl-7-fluoro-1-naphthyl)-8-fluoro-pyrido[4,3-d]pyrimidin-2-yl]oxymethyl]-1,2,3,5,6,7-hexahydropyrrolizin-3-yl]methyl 4-[3-[3-methyl-1-(1-methyl-2,6-dioxo-3-piperidyl)-2-oxo-benzimidazol-4-yl]propoxy]piperidine-1-carboxylate]
DC50: ≥ 300 nM

C#Cc1c(F)ccc2cccc(-c3ncc4c(N5CC6CCC(C5)N6)nc(OC[C@@]56CCCN5[C@H](COC(=O)NCCCCCC(=O)N5CCN(c7ccc(N8CCC(=O)NC8=O)cc7)CC5)CC6)nc4c3F)c12 [Compound 148, ((3S,7aS)-7a-(((4-(3,8-Diazabicyclo[3.2.1]octan-3-yl)-7-(8-ethynyl-7-fluoronaphthalen-1-yl)-8-fluoropyrido[4,3-d]pyrimidin-2-yl)oxy)methyl)hexahydro-1H-pyrrolizin-3-yl)methyl(6-(4-(4-(2,4-dioxotetrahydropyrimidin-1(2H)-yl)phenyl)piperazin-1-yl)-6-oxohexyl)carbamate]
DC50: ≥ 300 nM

C#Cc1c(F)ccc2cccc(-c3ncc4c(N5CC6CCC(C5)N6)nc(OC[C@@]56CCCN5[C@H](COC(=O)N5CCC(OCCCCc7cccc8c7n(C)c(=O)n8C7CCC(=O)NC7=O)CC5)CC6)nc4c3F)c12 (stereo partly drawn) [Compound 117, [(3S,8S)-8-[[4-(3,8-Diazabicyclo[3.2.1]octan-3-yl)-7-(8-ethynyl-7-fluoro-1-naphthyl)-8-fluoro-pyrido[4,3-d]pyrimidin-2-yl]oxymethyl]-1,2,3,5,6,7-hexahydropyrrolizin-3-yl]methyl4-[4-[1-(2,6-dioxo-3-piperidyl)-3-methyl-2-oxo-benzimidazol-4-yl]butoxy]piperidine-1-carboxylate]
DC50: < 100 nM

C#Cc1c(F)ccc2cccc(-c3ncc4c(N5CC6CCC(C5)N6)nc(OC[C@@]56CCCN5[C@H](COC(=O)N5CCC(CN7CCC(c8cccc9c8n(C)c(=O)n9C8CCC(=O)NC8=O)CC7)CC5)CC6)nc4c3F)c12 (stereo partly drawn) [Compound 38, [(3S,8S)-8-[[4-(3,8-Diazabicyclo[3.2.1]octan-3-yl)-7-(8-ethynyl-7-fluoro-1-naphthyl)-8-fluoro-pyrido[4,3-d]pyrimidin-2-yl]oxymethyl]-1,2,3,5,6,7-hexahydropyrrolizin-3-yl]methyl4-[[4-[1-(2,6-dioxo-3-piperidyl)-3-methyl-2-oxo-benzimidazol-4-yl]-1-piperidyl]methyl]piperidine-1-carboxylate]
DC50: < 100 nM

C#Cc1c(F)ccc2cccc(-c3ncc4c(N5CC6CCC(C5)N6)nc(OC[C@@]56CCCN5[C@H](COC(=O)N5CC(OCC7CCN(c8ccc9c(c8)n(C)c(=O)n9C8CCC(=O)NC8=O)CC7)C5)CC6)nc4c3F)c12 (stereo partly drawn) [Compound 101, [(3S,8S)-8-[[4-(3,8-Diazabicyclo[3.2.1]octan-3-yl)-7-(8-ethynyl-7-fluoro-1-naphthyl)-8-fluoro-pyrido[4,3-d]pyrimidin-2-yl]oxymethyl]-1,2,3,5,6,7-hexahydropyrrolizin-3-yl]methyl 3-[[1-[1-(2,6-dioxo-3-piperidyl)-3-methyl-2-oxo-benzimidazol-5-yl]-4-piperidyl]methoxy]azetidine-1-carboxylate]
DC50: < 100 nM

C#Cc1c(F)ccc2cccc(-c3ncc4c(N5CC6CCC(C5)N6)nc(OC[C@@]56CCCN5[C@H](COC(=O)N5CCC(N7CCN(c8cccc9c8n(C)c(=O)n9C8CCC(=O)NC8=O)CC7)CC5)CC6)nc4c3F)c12 (stereo partly drawn) [Compound 131, [(3S,8S)-8-[[4-(3,8-Diazabicyclo[3.2.1]octan-3-yl)-7-(8-ethynyl-7-fluoro-1-naphthyl)-8-fluoro-pyrido[4,3-d]pyrimidin-2-yl]oxymethyl]-1,2,3,5,6,7-hexahydropyrrolizin-3-yl]methyl4-[4-[1-(2,6-dioxo-3-piperidyl)-3-methyl-2-oxo-benzimidazol-4-yl]piperazin-1-yl]piperidine-1-carboxylate]
DC50: ≥ 300 nM

C#Cc1c(F)ccc2cccc(-c3ncc4c(N5CC6CCC(C5)N6)nc(OC[C@@]56CCCN5[C@H](COC(=O)NCCCCCCC(=O)N5CCN(c7ccc(N8CCC(=O)NC8=O)cc7)CC5)CC6)nc4c3F)c12 [Compound 149, [(3S,8S)-8-[[4-(3,8-Diazabicyclo[3.2.1]octan-3-yl)-7-(8-ethynyl-7-fluoro-1-naphthyl)-8-fluoro-pyrido[4,3-d]pyrimidin-2-yl]oxymethyl]-1,2,3,5,6,7-hexahydropyrrolizin-3-yl]methyl N-[7-[4-[4-(2,4-dioxohexahydropyrimidin-1-yl)phenyl]piperazin-1-yl]-7-oxo-heptyl]carbamate]
DC50: ≥ 300 nM

C#Cc1c(F)ccc2cccc(-c3ncc4c(N5CC6CCC(C5)N6)nc(OC[C@@]56CCCN5[C@H](COC(=O)N5CCC7(CC5)CCN(c5cccc8c5n(C)c(=O)n8C5CCC(=O)NC5=O)CC7)CC6)nc4c3F)c12 (stereo partly drawn) [Compound 129, [(3S,8S)-8-[[4-(3,8-Diazabicyclo[3.2.1]octan-3-yl)-7-(8-ethynyl-7-fluoro-1-naphthyl)-8-fluoro-pyrido[4,3-d]pyrimidin-2-yl]oxymethyl]-1,2,3,5,6,7-hexahydropyrrolizin-3-yl]methyl9-[1-(2,6-dioxo-3-piperidyl)-3-methyl-2-oxo-benzimidazol-4-yl]-3,9-diazaspiro[5.5]undecane-3-carboxylate]
DC50: ≥ 300 nM

C#Cc1c(F)ccc2cccc(-c3ncc4c(N5CC6CCC(C5)N6)nc(OC[C@@]56CCCN5[C@H](COC(=O)NCCOCCN5CCN(c7cccc8c7n(C)c(=O)n8C7CCC(=O)NC7=O)CC5)CC6)nc4c3F)c12 (stereo partly drawn) [Compound 123, [(3S,8S)-8-[[4-(3,8-diazabicyclo[3.2.1]octan-3-yl)-7-(8-ethynyl-7-fluoro-1-naphthyl)-8-fluoro-pyrido[4,3-d]pyrimidin-2-yl]oxymethyl]-1,2,3,5,6,7-hexahydropyrrolizin-3-yl]methyl N-[2-[2-[4-[1-(2,6-dioxo-3-piperidyl)-3-methyl-2-oxo-benzimidazol-4-yl]piperazin-1-yl]ethoxy]ethyl]carbamate]
DC50: ≥ 300 nM

C#Cc1c(F)ccc2cccc(-c3ncc4c(N5CC6CCC(C5)N6)nc(OC[C@@]56CCCN5[C@H](COC(=O)N5CCC(CN7CCN(c8ccc9c(c8)n(C)c(=O)n9C8CCC(=O)NC8=O)CC7)CC5)CC6)nc4c3F)c12 (stereo partly shown) [Compound 106]
DC50: < 100 nM

C#Cc1c(F)ccc2cccc(-c3ncc4c(N5CC6CCC(C5)N6)nc(OC[C@@]56CCCN5[C@H](COC(=O)N5CCC(N7CCN(Cc8cccc9c8n(C)c(=O)n9C8CCC(=O)NC8=O)CC7)CC5)CC6)nc4c3F)c12 (stereo partly drawn) [Compound 53, [(3S,8S)-8-[[4-(3,8-diazabicyclo [3.2.1]octan-3-yl)-7-(8-ethynyl-7-fluoro-1-naphthyl)-8-fluoro-pyrido[4,3-d]pyrimidin-2-yl]oxymethyl]-1,2,3,5,6,7-hexahydropyrrolizin-3-yl]methyl4-[4-[[1-(2,6-dioxo-3-piperidyl)-3-methyl-2-oxo-benzimidazol-4-yl]methyl]piperazin-1-yl]piperidine-1-carboxylate]
DC50: < 100 nM

C#Cc1c(F)ccc2cccc(-c3ncc4c(N5CC6CCC(C5)N6)nc(OC[C@@]56CCCN5[C@H](COC(=O)N5CCC(OC7CCN(Cc8cccc9c8n(C)c(=O)n9C8CCC(=O)NC8=O)CC7)CC5)CC6)nc4c3F)c12 (stereo partly drawn) [Compound 130, [(3S,8S)-8-[[4-(3,8-Diazabicyclo[3.2.1]octan-3-yl)-7-(8-ethynyl-7-fluoro-1-naphthyl)-8-fluoro-pyrido[4,3-d]pyrimidin-2-yl]oxymethyl]-1,2,3,5,6,7-hexahydropyrrolizin-3-yl]methyl4-[[1-[[1-(2,6-dioxo-3-piperidyl)-3-methyl-2-oxo-benzimidazol-4-yl]methyl]-4-piperidyl]oxy]piperidine-1-carboxylate]
DC50: < 100 nM
